Test results as given in patent US11591333B2, “Substituted pyrrolo[2,3-d]pyrimidines as janus kinase inhibitors” (CINKATE PHARM TECH (SHANGHAI) CO.,LTD., priority 2016, dated 2023).

Experiments:
JAK2/JAK1 = assay: JAK enzyme activity inhibition, JAK2 versus JAK1 selectivity; format: biochemical; settings: ratio of JAK2 IC50 to JAK1 IC50
Protocol: (§1) The tested compounds were dissolved in DMSO to provide a 10 mM mother solution. The compound was diluted to 1 mM in DMSO before use, and was gradient diluted by 3 folds to altogether 11 concentrations. After the buffer was prepared, JAK1, JAK2, JAK3 and the substrate were mixed with pre-diluted compounds in different concentrations, and allowed to stand at room temperature for 30 minutes, while each concentration was duplicated for twice. ATP was added and reacted at room temperature for 90 minutes, and antibody was added for detection after the reaction was completed.

JAK3/JAK1 = assay: JAK enzyme activity inhibition, JAK3 versus JAK1 selectivity; format: biochemical; settings: ratio of JAK3 IC50 to JAK1 IC50
Protocol: as §1

mouse spleen cells [1] = assay: Mitogen ConA-induced mouse spleen cell proliferation (CCK8); format: cell-based; settings: for EC50: mouse spleen cells, ConA as stimulus, read-out: Inhibition activity (EC50), ConA induction; for concentration at which inhibition of lymphocyte proliferation began: ConA as the stimuli; for inhibition to the non-specific immunosuppression induced by mitogen: in words, compared with specific immunity
Protocol: […] 5*10^5/well, with or without 50 uL of ConA at a concentration of 2.5 ug/uL as well as 50 uL inhibitors at a different concentration, while the negative control wells were supplemented with 50 uL of complete 1640 medium. After 48 hours of culture, the cell culture supernatant was collected for 100 uL/well for subsequent ELISA, and 10 uL/well of CCK8 reagent was added to detect the cell proliferation. The proliferation of immune cells was microscopic observed in each group.
[…] mouse spleen cells were adjusted to a cell concentration of 5*10^6/mL in complete 1640 medium, […], i.e., 5*10^5/well, […], as well as 50 uL of different concentrations of inhibitor (compound 1-6) while negative control well was supplemented with 50 uL of complete 1640 medium. […] The proliferation of immune cells was microscopic observed in each group, and the EC50 value was calculated.

mouse spleen cells [2] = assay: CD3/CD28 antibody-induced mouse spleen cell proliferation (CCK8); format: cell-based; settings: for EC50: mouse spleen cells, CD3/CD28 antibodies as stimulus, read-out: Inhibition activity (EC50), CD3/CD28; for concentration at which inhibition of lymphocyte proliferation began: Anti-CD3/CD28 as the stimuli

| Molecule | Selectivity fold JAK2/JAK1 IC50 ratio (JAK2/JAK1) | Selectivity fold JAK3/JAK1 IC50 ratio (JAK3/JAK1) | EC50 (mouse spleen cells [1]) | EC50 (mouse spleen cells [2]) | concentration at which inhibition of lymphocyte proliferation began (mouse spleen cells [1]) | concentration at which inhibition of lymphocyte proliferation began (mouse spleen cells [2]) | inhibition to the non-specific immunosuppression induced by mitogen (mouse spleen cells [1]) |
| --- | --- | --- | --- | --- | --- | --- | --- |
| 2-cyano-3-hydroxy-2-butene-{4-[methyl-(7H-pyrrolo[2,3-d]pyrimidin-4-yl)-amino]-cyclohexyl]-amide [Compound 5] | >10 fold | >10 fold | > 200 µM | > 100 µM | – | – | – |
| 2-cyano-3-hydroxy-2-butene-{4-[methyl-(7H-pyrrolo[2,3-d]pyrimidin-4-yl)-amino]-phenyl]-amide [Compound 4] | 7 fold | 5 fold | 61.2 µM | 30.9 µM | 100 µM | 50 µM | – |
| 5-methyl-isoxazole-{4-methyl-(7H-pyrrolo[2,3-d]pyrimidin-4-yl)-amino]-cyclohex yl}-amine [Compound 3] | >10 fold | >10 fold | 90.7 µM | 65.7 µM | 10 µM | 10 µM | weak |
| CN(c1ccc(N)cc1)c1ncnc2[nH]ccc12 [Compound 1, N-Methyl-N-(7H-pyrrolo[2,3-d]pyrimidin-4-yl)phenyl-1,4-diamine] | 7 fold | 2 fold | 53.9 µM | 22.7 µM | 10 µM | 10 µM | weak |
| Cc1oncc1C(=O)Nc1ccc(N(C)c2ncnc3[nH]ccc23)cc1 [Compound 2] | >10 fold | >10 fold | 40.3 µM | 15.1 µM | 10 µM | 50 µM | – |
| C/C(O)=C(\C#N)C(=O)Nc1ccc(C(F)(F)F)cc1 [Compound A771726, A771726, reference compound] | – | – | > 200 µM | > 200 µM | – | – | – |
| C[C@@H]1CCN(C(=O)CC#N)C[C@@H]1N(C)c1ncnc2[nH]ccc12 [Tofatinib, reference compound] | 2 fold | <1 fold | – | – | – | – | – |
